Measured values reported in article PMC5217663, “Iridoids from Canthium subcordatum iso-butanol fraction with potent biological activities” (BMC Complementary and Alternative Medicine, 2017).
In brackets after ≈: the same amount, converted by molar mass. Read-outs that look alike come from different tables or passages of the source.

Key:
[1] = tested on: Staphylococcus aureus ATCC 25923; experiment: microbe, parasite or virus in culture; format: cell-based; conditions: for MBC / MIC: Staphylococcus aureus; for MBC: ATCC25923; for MIC: ATCC25923, 24 h
Description: (§1) A total of six bacterial strains were tested for their susceptibility to compounds and these strains were taken from our laboratory collection (kindly provided by Dr. T. Ramamurthy, NICED, Kolkata). Among the clinical strains of Vibrio cholerae used in this study, strains NB2 and SG24(1) belonged to O1 and O139 serotypes, respectively. […] The bacterial strains were maintained on agar slant at 4 °C and subcultured on a fresh appropriate agar plates 24 h prior to any antibacterial test. The Mueller Hinton Agar (MHA) was used for the activation of bacteria. The Mueller Hinton Broth (MHB) and nutrient agar (Hi-Media) were used for the MIC and MBC determinations respectively.
(§2) MIC values were determined by a broth micro-dilution method as described earlier [14] with slight modifications. […] Then, 100 μl of each concentration was added in each well (96-well microplate) containing 95 μl of MHB and 5 μl of inoculums (at 1.5 × 10^6 CFU/ml) for final concentrations varying from 0.25–512 μg/ml. […] The plates were covered with sterile lids, then the contents of each well were mixed using a shaker and incubated at 35 °C for 24 h. […] MIC values were defined as the lowest sample concentrations that prevented this change in color indicating an inhibition of visible growth. Viable microorganisms reduced the yellow dye to a pink color. […] The lowest concentrations that yielded no growth after this subculturing were taken as the MBC values [15]. All the analyses were carried out in triplicate.

Vibrio cholerae PC2 = experiment: Broth microdilution MIC/MBC; format: cell-based; conditions: for MBC / MBC/MIC: PC2
Description: as §1, §2

Vibrio cholerae CO6 = experiment: Broth microdilution MIC/MBC; format: cell-based; conditions: for MBC / MBC/MIC: CO6; for MIC: CO6, 24 h
Description: as §1, §2

Vibrio cholerae SG24 (1) = experiment: Broth microdilution MIC/MBC; format: cell-based; conditions: for MBC / MIC: Vibrio cholerae; for MBC/MIC: Vibrio cholerae SG24 (1); for MIC: 24 h
Description: as §1, §2

Vibrio cholerae NB2 = experiment: Broth microdilution MIC/MBC; format: cell-based; conditions: for MBC / MBC/MIC: NB2
Description: as §1, §2

Shigella flexneri SDINT = experiment: microbe, parasite or virus in culture; format: cell-based
Description: as §1, §2

[2] = Gallic acid equivalent antioxidant capacity (GAEAC) assay; conditions: ABTS/laccase, 420 nm, 240 s
Description: The GAEAC test was done as previously described [17] with slight modifications. In a quartz cuvette, to 950 μl acetate buffer (pH =5.0, 100 mM), the following were added: 20 μl laccase (1 mM stock solution), 20 μl test sample, 10 μl ABTS (2,2’-azinobis(3-ethylbenzothiazoline-6-sulfonic acid) (74 mM stock solution). The laccase were purified from Sclerotinia sclerotiorum according to the protocol described [18]. The sample concentrations in the assay mixture were 800, 400, 200, 100, 10 μg/ml for the extracts and 200, 100, 50, 25, 125.5 μg/ml for the isolated compounds. The content of the generated ABTS^●+ radical was measured at 420 nm after 240 s reaction time and was converted to gallic acid equivalents by the use of a calibration curve (Pearson’s correlation coefficient: r = 0.996) constructed with 0, 4, 10, 14, 28, 56, 84 μM gallic acid standards rather than Trolox. Experiments were done in triplicate.

[3] = tested on: Vibrio cholerae, Shigella flexneri and Staphylococcus aureus; experiment: Broth microdilution MIC/MBC, summary over all six tested strains; format: cell-based; conditions: for MIC: read-out: antibacterial activity class (pure compounds)
Description: as §1, §2

[4] = DPPH free radical scavenging assay; conditions: 30 min, room temperature, 517 nm
Description: The free radical scavenging activity of extracts as well as most of their isolated compounds was performed according to Brand-Williams et al. with slight modifications. Briefly, different concentrations (10 to 2000 μg/ml) of extracts/compounds and vitamin C (positive control) were thoroughly mixed with 3 ml of methanolic DPPH solution (20 mg/l) in test-tubes and the resulting solution was kept standing for 30 min at room temperature before the optical density (OD) was measured at 517 nm. The percentage radical scavenging activity was calculated from the following formula: % scavenging [DPPH] = [(A0–A1)/A0] × 100 [16]. Where A0 was the absorbance of the negative control (methanolic DPPH solution) and A1 was the absorbance in the presence of the samples. IC50 value was determined from the graph obtained using standard vitamin C by using the “y = mx + c” formula from the slope of the graph. All the analyses were carried out in triplicate.

Compound | MBC/MIC [1] | MBC [1] | MIC [1] | MBC (Vibrio cholerae PC2; Vibrio cholerae) | MIC (Vibrio cholerae PC2; Vibrio cholerae, PC2, 24 h) | MBC (Vibrio cholerae CO6) | MBC/MIC (Vibrio cholerae CO6) | MIC (Vibrio cholerae CO6) | MBC (Vibrio cholerae SG24 (1)) | MIC (Vibrio cholerae SG24 (1)) | MBC (Vibrio cholerae NB2; Vibrio cholerae) | MIC (Vibrio cholerae NB2; Vibrio cholerae, NB2, 24 h) | MBC (Shigella flexneri SDINT; Shigella flexneri) | MIC (Shigella flexneri SDINT; Shigella flexneri, 24 h) | MBC/MIC (Vibrio cholerae PC2; Vibrio cholerae) | MIC [3] | MBC/MIC (Vibrio cholerae NB2; Vibrio cholerae) | MBC/MIC (Shigella flexneri SDINT) | also measured
CC1(C)S[C@@H]2[C@H](NC(=O)[C@H](N)c3ccccc3)C(=O)N2[C@H]1C(=O)O [Ampicillin, reference compound] | 1 | 8 mg/L (≈ 22.9 µM) | 8 mg/L (≈ 22.9 µM) | > 512 mg/L | > 512 mg/L | 16 mg/L (≈ 45.8 µM) | 1 | 16 mg/L (≈ 45.8 µM) | 16 mg/L (≈ 45.8 µM) | 16 mg/L (≈ 45.8 µM) | > 512 mg/L | > 512 mg/L | > 512 mg/L | > 512 mg/L | – | – | – | – | MIC (Vibrio cholerae PC2; Vibrio cholerae PC2, 35 °C, 24 h): not active; MBC/MIC (Vibrio cholerae SG24 (1)): 1; MIC (Vibrio cholerae NB2; Vibrio cholerae NB2, 35 °C, 24 h): not active; MIC (Shigella flexneri SDINT): not active
COC(=O)C1=CO[C@@H](O)[C@@H]2C(COC(=O)C3=CO[C@@H](O)[C@@H]4C(COC(C)=O)=CC[C@H]34)=CC[C@H]12 [Compound 1, canthiumoside 1] | 1 | 32 mg/L (≈ 69.2 µM) | 32 mg/L (≈ 69.2 µM) | 64 mg/L (≈ 138 µM) | 64 mg/L (≈ 138 µM) | 64 mg/L (≈ 138 µM) | 1 | 64 mg/L (≈ 138 µM) | 128 mg/L (≈ 277 µM) | 64 mg/L (≈ 138 µM) | 64 mg/L (≈ 138 µM) | 64 mg/L (≈ 138 µM) | 64 mg/L (≈ 138 µM) | 32 mg/L (≈ 69.2 µM) | 1 | 10 to 100 mg/L (≈ 21.6 to 216 µM) | 1 | 2 | GAEAC (gallic acid equivalent antioxidant capacity) [2]: 79.82 µg/mL; GAEAC (gallic acid equivalent antioxidant capacity) ([2]; listed as Canthiumoside 1): 79.82 to 92.35 µg/mL; MBC/MIC (Vibrio cholerae SG24 (1)): 2; EC50 (concentration scavenging 50% of DPPH radical) [4]: 2.03 mg/L
COC(=O)C1=COC(O)C2C(COC(=O)C3=COC(OC4OC(CO)C(O)C(O)C4O)C4C(COC(C)=O)=CCC34)=CCC12 (stereo not drawn) [Compound 2, canthiumoside 2] | 1 | 64 mg/L (≈ 102 µM) | 64 mg/L (≈ 102 µM) | 256 mg/L (≈ 410 µM) | 256 mg/L (≈ 410 µM) | 256 mg/L (≈ 410 µM) | 2 | 128 mg/L (≈ 205 µM) | > 256 mg/L | 256 mg/L (≈ 410 µM) | 128 mg/L (≈ 205 µM) | 128 mg/L (≈ 205 µM) | 256 mg/L (≈ 410 µM) | 128 mg/L (≈ 205 µM) | 1 | > 100 mg/L | 1 | 2 | –
COC(=O)C1=COC(OC2OC(CO)C(O)C(O)C2O)C2C(COC(=O)C3=COC(OC4OC(CO)C(O)C(O)C4O)C4C(COC(C)=O)=CCC34)=CCC12 (stereo not drawn) [Compound 3, canthiumoside 3] | – | > 256 mg/L | 256 mg/L (≈ 325 µM) | > 256 mg/L | 256 mg/L (≈ 325 µM) | 256 mg/L (≈ 325 µM) | 2 | 128 mg/L (≈ 163 µM) | – | > 256 mg/L | 256 mg/L (≈ 325 µM) | 256 mg/L (≈ 325 µM) | > 256 mg/L | 256 mg/L (≈ 325 µM) | – | > 100 mg/L | 1 | – | tested organisms inhibited [3]: 83.33%
COC(=O)C1=COC(OC2OC(CO)C(O)C(O)C2O)C2C(COC(=O)C3=COC(OC4OC(CO)C(O)C(O)C4O)C4C(CO)=CCC34)=CCC12 (stereo not drawn) [Compound 4, canthiumoside 4] | – | – | – | – | – | – | – | – | – | – | – | – | – | – | – | – | – | – | GAEAC (gallic acid equivalent antioxidant capacity) [2]: 22.63 µg/mL; EC50 (concentration scavenging 50% of DPPH radical) [4]: 178.57 mg/L
COC(=O)C1=COC(OC2OC(CO)C(O)C(O)C2O)C2C(COC(=O)C3=COC(OC(C)=O)C4C(C)CCC34)=CCC12 (stereo not drawn) [Compound 5a, canthiumoside 5a] | 1 | 128 mg/L (≈ 210 µM) | 128 mg/L (≈ 210 µM) | 256 mg/L (≈ 419 µM) | 128 mg/L (≈ 210 µM) | 256 mg/L (≈ 419 µM) | 2 | 128 mg/L (≈ 210 µM) | > 256 mg/L | 256 mg/L (≈ 419 µM) | 128 mg/L (≈ 210 µM) | 128 mg/L (≈ 210 µM) | 128 mg/L (≈ 210 µM) | 128 mg/L (≈ 210 µM) | 2 | > 100 mg/L | 1 | 1 | –
COC(=O)C1=CO[C@@H](O)[C@H]2[C@@H]1CC[C@]2(C)O [Compound 7, linearin] | – | – | – | – | – | – | – | – | – | – | – | – | – | – | – | – | – | – | MIC (range over the tested bacteria) ([3]; range over all tested strains): 8 to 64 mg/L
COC(=O)C1=COC(OC2OC(CO)C(O)C(O)C2O)C2C1CCC2(C)O (stereo not drawn) [Compound 8, mussaenoside] | 2 | 128 mg/L (≈ 328 µM) | 64 mg/L (≈ 164 µM) | 256 mg/L (≈ 656 µM) | 128 mg/L (≈ 328 µM) | 256 mg/L (≈ 656 µM) | 1 | 256 mg/L (≈ 656 µM) | > 256 mg/L | 256 mg/L (≈ 656 µM) | > 256 mg/L | 128 mg/L (≈ 328 µM) | 256 mg/L (≈ 656 µM) | 128 mg/L (≈ 328 µM) | 2 | > 100 mg/L | – | 2 | –
COC(=O)C1=CO[C@@H](O[C@@H]2O[C@H](CO)[C@@H](O)[C@H](O)[C@H]2O)[C@H]2[C@@H]1[C@H](O)C[C@]2(C)O [Compound 9, shanzhiside methyl ester] | 2 | 256 mg/L (≈ 630 µM) | 128 mg/L (≈ 315 µM) | 256 mg/L (≈ 630 µM) | 256 mg/L (≈ 630 µM) | > 256 mg/L | – | 128 mg/L (≈ 315 µM) | 128 mg/L (≈ 315 µM) | 128 mg/L (≈ 315 µM) | 128 mg/L (≈ 315 µM) | 128 mg/L (≈ 315 µM) | 256 mg/L (≈ 630 µM) | 128 mg/L (≈ 315 µM) | 1 | > 100 mg/L | 1 | 2 | MBC/MIC (Vibrio cholerae SG24 (1)): 1
COC(=O)C1=CO[C@@H](O)[C@H]2[C@@H]1[C@H](O)C[C@]2(C)O [compound 6] | – | 64 mg/L (≈ 262 µM) | 32 mg/L (≈ 131 µM) | 256 mg/L (≈ 1050 µM) | 128 mg/L (≈ 524 µM) | 256 mg/L (≈ 1050 µM) | – | 256 mg/L (≈ 1050 µM) | 256 mg/L (≈ 1050 µM) | 128 mg/L (≈ 524 µM) | 256 mg/L (≈ 1050 µM) | 256 mg/L (≈ 1050 µM) | 64 mg/L (≈ 262 µM) | 32 mg/L (≈ 131 µM) | – | > 100 mg/L | – | – | –
COC(=O)C1=CO[C@@H](O)[C@H]2[C@@H]1CC[C@]2(C)O [compound 7] | – | 8 mg/L (≈ 35.1 µM) | 8 mg/L (≈ 35.1 µM) | 32 mg/L (≈ 140 µM) | 32 mg/L (≈ 140 µM) | 128 mg/L (≈ 561 µM) | – | 64 mg/L (≈ 280 µM) | 64 mg/L (≈ 280 µM) | 32 mg/L (≈ 140 µM) | 32 mg/L (≈ 140 µM) | 32 mg/L (≈ 140 µM) | 16 mg/L (≈ 70.1 µM) | 16 mg/L (≈ 70.1 µM) | – | 10 to 100 mg/L (≈ 43.8 to 438 µM) | – | – | –
O=C1O[C@H]([C@@H](O)CO)C(O)=C1O [vitamin C, reference compound] | – | – | – | – | – | – | – | – | – | – | – | – | – | – | – | – | – | – | EC50 (concentration scavenging 50% of DPPH radical) [4]: 1.74 mg/L
